The values that follow come from patent publication US11376214B2, “Compositions and methods for treatment of ocular diseases” (KIORA PHARMACEUTICALS, INC., priority 2019, dated 2022).

Where a name gives a salt, the structure may show the parent alone. Read-outs that look alike come from different tables or passages of the source. Bounds are passed on as bounds.

For data set [1] the following is noted: cited from earlier work.
Data set [2] is described as follows: Release of antibiotic from hydrogel or PBS in dialysis chamber. It is filed as physicochemical. As for the experimental part:
For this assessment, a 0.5 ml sample of hydrogel plus drug or PBS plus drug was placed into a medi-dialysis chamber, and the chamber was placed in a beaker containing 100 ml of PBS. The remaining amount of drug in the dialysis chamber was monitored using UV spectroscopy at various time points. […] The release was monitored as described above. […] Another drug release study was performed, with Moxi-FB and Besi-HCl as the antibiotics, a hydrogel with 7.5 mg/ml CMHA-S, and the antibiotics incorporated at 10 mg/ml. For this study, the samples were placed in a dialysis chamber that was then placed in a tube that contained 10 ml of PBS. The dialysis chamber was transferred to a new tube at each time point, and the dialysate was analyzed by UV absorption (rather than the material inside the dialysis chamber), and the released amount of drug was calculated (rather than the amount remaining). In this experimental set-up, drug release from the hydrogel was slower than from PBS (FIGS. 4A and 4B). Despite the poor water solubility of Besi-HCl compared to Moxi-FB, Besi-HCl was still released from the hydrogel.

The subject of the next data set is Pseudomonas aeruginosa. Put plainly: Zone of inhibition (ZOI) study of dialysate samples. It is filed as cell-based. To be noted: P. aeruginosa. As for the experimental part: (§1) To verify the efficacy of a drug in the hydrogel, zone of inhibition (ZOI) studies were conducted. […] Samples of the dialysate were collected at 0, 1, 2, 4, and 8 hours. Filter paper disks were soaked in each sample, placed on a bacteria-inoculated plate, and the ZOIs were compared between PBS group and hydrogel group.

In a further data set the test system is Staphylococcus aureus. The data set is described as above. The format is cell-based. The note with it: S. aureus. As for the experimental part: as §1
Data set [3] is described as follows: Refractive index by refractometer. The note with it: antibiotic 1 mg/ml incorporated in hydrogel (CMHA-S about 7.5 mg/ml). It is filed as physicochemical. As for the experimental part: (§2) Viscosity, pH, and refractive index (RI) were measured for hydrogels described in Example 2 with and without antibiotic incorporated. […] Viscosity was determined as described in Example 1. RI was measured with a refractometer and pH was measured with a pH meter.

A short description of data set [4]: Rheological testing (parallel plate rheometer): viscosity and shear-thinning. The format is physicochemical. The note with it: antibiotic 1 mg/ml incorporated in hydrogel (CMHA-S about 7.5 mg/ml). As to the method: Thiol-modified carboxymethyl HA (CMHA-S) was synthesized as described in Lawyer et al. and Wendling et al., with a thiol modification of 0.1, 0.2, 0.4, or 0.7 μmol thiol/mg. Hydrogels were created by dissolving CMHA-S in phosphate-buffered saline (PBS; pH 7.4). The CMHA-S was disulfide crosslinked under continuous mixing with the addition of sodium hypochlorite. Rheological testing was performed using a parallel plate format rheometer with a 25 mm-diameter stainless steel geometry. Samples (5-6 ml) of hydrogel were placed in a 35 mm Petri dish, and the geometry was lowered to a gap of 5 mm. To determine viscosity and shear-thinning, the shear rate was varied from 0.1 to 10 Hz. A decreasing viscosity as shear rate increases indicates shear-thinning behavior. Table 1 provides the thiol modification of the CMHA-S, concentration of CMHA-S, and resultant viscosity of the hydrogel (at 2.5 Hz) for 4 hydrogel formulations.
as §2

The next data set is described as follows: pH by pH meter. The format is physicochemical. The note with it: antibiotic 1 mg/ml incorporated in hydrogel (CMHA-S about 7.5 mg/ml). As for the experimental part: as §2
The mark [5] stands for this setting: released from PBS (1 mg/ml), dialysate at 4 hrs.
Where [6] appears, read: released from PBS (1 mg/ml), dialysate at 8 hrs.
The mark [7] stands for this setting: released from hydrogel (CMHA-S 7.5 mg/ml, drug 1 mg/ml), dialysate at 8 hrs.

In the case of `N[C@@H]1CCCCN(c2c(F)cc3c(=O)c(C(=O)O)cn(C4CC4)c3c2Cl)C1` [Besi-HCl, besifloxacin hydrochloride], the solubility in water result in data set [1] is recorded as “about 1 mg/ml”. Further, in data set [2] (antibiotic 10 mg/ml in hydrogel with 7.5 mg/ml CMHA-S, dialysis chamber in 10 ml PBS, new tube at each time point, dialysate UV), the “drug release from hydrogel compared with PBS” value is “slower”.

Consider `COc1c(N2C[C@@H]3CCCN[C@@H]3C2)c(F)cc2c(=O)c(C(=O)O)cn(C3CC3)c12` [Moxi-HCl, moxifloxacin hydrochloride], for which, in data set [1] (hydrochloride), the solubility in water is around 20 mg/mL. For the same compound, the ZOI in the data set with Pseudomonas aeruginosa (setting [5]) is on record as 24.7 ± 2.8 mm; in the data set with Pseudomonas aeruginosa (setting [6]), 20.5 ± 1.8 mm; in the data set on Pseudomonas aeruginosa (released from hydrogel (CMHA-S 7.5 mg/ml, drug 1 mg/ml), dialysate at 1 hrs), 28.7 ± 0.3 mm; with Pseudomonas aeruginosa (released from hydrogel (CMHA-S 7.5 mg/ml, drug 1 mg/ml), dialysate at 4 hrs) it was 26.8 ± 1.4 mm; in the data set with Pseudomonas aeruginosa (setting [7]), 26.5 ± 3.2 mm; in the data set with Staphylococcus aureus (released from PBS (1 mg/ml), dialysate at 2 hrs) it was 28.3 ± 1.0 mm. In addition, the ZOI in the data set with Staphylococcus aureus (setting [5]) was found to be 26.5 ± 2.5 mm; in the data set with Staphylococcus aureus (setting [6]), 23.5 ± 2.8 mm; in the data set on Staphylococcus aureus (setting [7]) it was 27.2 ± 1.3 mm. Also, the Refractive index in data set [3] (hydrochloride) was found to be 1.3355. Moreover, in data set [4] (hydrochloride), the “Viscosity at 2.5 Hz” value amounted to 1.6 Pa · s. Moreover, the “drug release from hydrogel compared with PBS” value is “slightly slower” in data set [2] (drug 1 mg/ml in hydrogel #4 (CMHA-S 4.0 mg/ml)) and “only slightly slowed down” in data set [2] (drug 1 mg/ml in hydrogel (CMHA-S about 7.5 mg/ml), medi-dialysis chamber in 100 ml PBS). Also, in data set [2] (drug 1 mg/ml in hydrogel #4 (CMHA-S 4.0 mg/ml), medi-dialysis chamber in 100 ml PBS), the “time within which release was complete” value is at most 4 h. The compound further registered a pH in the data set “pH by pH meter” (hydrochloride) of 7.0.

On to `COc1c(N2C[C@@H]3CCCN[C@@H]3C2)c(F)cc2c(=O)c(C(=O)O)cn(C3CC3)c12` [Moxi-FB, moxifloxacin], for which the solubility in water entry in data set [1] is recorded as “about 1 mg/ml”.

For the compound `NC[C@H]1O[C@H](O[C@H]2[C@H](O)[C@@H](O[C@H]3O[C@H](CO)[C@@H](O)[C@H](N)[C@H]3O)[C@H](N)C[C@@H]2N)[C@H](N)C[C@@H]1O` [Tobramycin, tobramycin], in data set [1], the solubility in water was above 50 mg/mL. In addition, the Refractive index in data set [3] was 1.3355. Also, in data set [4], the “Viscosity at 2.5 Hz” value was 1.4 Pa · s. The compound further gave a pH in the data set “pH by pH meter” of 8.6.
